What all share (assay): PTP1B and TCPTP Inhibition Assay
Common to all, as to conditions: pH 6.3; 22 °C

The target of assay [1] is T1, Tyrosine-protein phosphatase non-receptor type 1 [1-298] (Homo sapiens, UniProt P18031).
T1 construct: 1-298
T1 sequence (P18031 whole entry): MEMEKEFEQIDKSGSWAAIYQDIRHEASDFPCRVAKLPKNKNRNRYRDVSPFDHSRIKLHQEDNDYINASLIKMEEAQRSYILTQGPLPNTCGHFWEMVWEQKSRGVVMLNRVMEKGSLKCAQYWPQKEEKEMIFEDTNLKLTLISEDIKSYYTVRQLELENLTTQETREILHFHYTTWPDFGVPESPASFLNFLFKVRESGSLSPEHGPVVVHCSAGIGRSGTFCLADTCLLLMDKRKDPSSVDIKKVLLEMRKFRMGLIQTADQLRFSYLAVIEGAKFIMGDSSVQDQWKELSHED

Assay [2] has as its target T2, Tyrosine-protein phosphatase non-receptor type 2 (Homo sapiens, UniProt P17706).
T2 sequence (P17706 whole entry): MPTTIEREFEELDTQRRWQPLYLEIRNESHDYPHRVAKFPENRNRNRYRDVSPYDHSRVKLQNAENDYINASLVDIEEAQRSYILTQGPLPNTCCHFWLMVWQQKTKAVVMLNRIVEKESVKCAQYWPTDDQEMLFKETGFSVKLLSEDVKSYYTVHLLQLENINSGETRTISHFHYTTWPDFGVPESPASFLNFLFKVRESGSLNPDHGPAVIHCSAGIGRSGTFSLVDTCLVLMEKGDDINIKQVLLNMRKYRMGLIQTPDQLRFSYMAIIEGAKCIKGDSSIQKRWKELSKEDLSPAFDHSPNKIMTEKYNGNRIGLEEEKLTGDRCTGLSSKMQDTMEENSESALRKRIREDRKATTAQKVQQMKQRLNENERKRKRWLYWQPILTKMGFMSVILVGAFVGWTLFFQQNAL

The target in assay [3] is Tyrosine-protein phosphatase non-receptor type 2 [V121L] (Homo sapiens, UniProt P17706, V121L).
The target in assay [4] is Tyrosine-protein phosphatase non-receptor type 1 [L119V] (Homo sapiens, UniProt P18031, L119V).

pIC50: −log10 of the molar value.

Tyrosine-protein phosphatase non-receptor type 2 [V121L], sequence (P17706 as listed by the source V121L): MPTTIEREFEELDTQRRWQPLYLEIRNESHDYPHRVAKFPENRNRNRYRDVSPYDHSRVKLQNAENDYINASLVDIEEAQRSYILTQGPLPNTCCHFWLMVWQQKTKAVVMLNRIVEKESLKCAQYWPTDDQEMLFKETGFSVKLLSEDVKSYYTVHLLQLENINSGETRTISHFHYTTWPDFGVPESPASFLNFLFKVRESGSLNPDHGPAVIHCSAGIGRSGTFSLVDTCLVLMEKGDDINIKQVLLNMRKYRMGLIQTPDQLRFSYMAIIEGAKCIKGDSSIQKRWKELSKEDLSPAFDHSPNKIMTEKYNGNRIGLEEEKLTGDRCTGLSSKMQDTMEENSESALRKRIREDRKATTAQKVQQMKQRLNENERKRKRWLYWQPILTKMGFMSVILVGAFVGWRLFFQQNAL
Tyrosine-protein phosphatase non-receptor type 1 [L119V], sequence (P18031 1-298 L119V): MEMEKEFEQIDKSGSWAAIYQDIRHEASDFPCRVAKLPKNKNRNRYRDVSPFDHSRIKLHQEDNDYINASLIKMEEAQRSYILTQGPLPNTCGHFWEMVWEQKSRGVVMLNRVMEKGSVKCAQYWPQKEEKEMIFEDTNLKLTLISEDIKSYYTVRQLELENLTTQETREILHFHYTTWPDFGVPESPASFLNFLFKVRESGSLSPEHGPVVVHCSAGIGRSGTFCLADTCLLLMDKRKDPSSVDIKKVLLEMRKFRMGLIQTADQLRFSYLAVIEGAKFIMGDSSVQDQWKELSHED

For the compound `O=P(O)(O)C(F)(F)c1ccc(CC(C/C=C/c2ccccc2)(c2ccccc2)n2nnc3ccccc32)cc1` (stereo not drawn) [({4-[(4E)-2-(1H-1,2,3-benzotriazol-1-yl)-2,5-diphenylpent-4-en-1-yl]phenyl}difluoromethyl)phosphonic acid], the pIC50 in assay [1] was 6.96; in assay [2], 7.02.
On to `COC(=O)c1ccc([C@@](C/C=C/c2ccccc2)(Cc2ccc(C(F)(F)P(=O)(O)O)cc2)n2nnc3ccccc32)cc1` [({4-[(4E)-2-(1H-1,2,3-benzotriazol-1-yl)-2-[4-(methoxycarbonyl)phenyl]-5-phenylpent-4-en-1-yl]phenyl}difluoromethyl)phosphonic acid], for which the pIC50 is 7.06 in assay [2] and 7.62 in assay [3].
Regarding `Cc1noc(-c2ccc(C(C/C=C/c3ccccc3)(Cc3ccc(C(F)(F)P(=O)(O)O)cc3)C(=O)c3ccc(F)cc3)cc2)n1` (stereo not drawn) [[difluoro({4-[3-(4-fluorophenyl)-2-[4-(3-methyl-1,2,4-oxadiazol-5-yl)phenyl]-3-oxo-2-[(2E)-3-phenylprop-2-en-1-yl]propyl]phenyl})methyl]phosphonic acid], the pIC50 in assay [1] is 6.79; in assay [2], 5.80; in assay [4], 5.72; in assay [3], 6.86.

Usually pIC50 stands for the IC50 on a negative log10 scale, so that one unit is a factor of ten. Low values mean a high IC50, high ones a low IC50.
